These results are taken from ChEMBL document CHEMBL4130561, “Design and Synthesis of N1-Modified Imidazoquinoline Agonists for Selective Activation of Toll-like Receptors 7 and 8” (ACS Med Chem Lett, 2017).

For assay [1], the target named is T1, Toll-like receptor 8 (Homo sapiens, UniProt Q9NR97).
T1 sequence (Q9NR97 whole entry): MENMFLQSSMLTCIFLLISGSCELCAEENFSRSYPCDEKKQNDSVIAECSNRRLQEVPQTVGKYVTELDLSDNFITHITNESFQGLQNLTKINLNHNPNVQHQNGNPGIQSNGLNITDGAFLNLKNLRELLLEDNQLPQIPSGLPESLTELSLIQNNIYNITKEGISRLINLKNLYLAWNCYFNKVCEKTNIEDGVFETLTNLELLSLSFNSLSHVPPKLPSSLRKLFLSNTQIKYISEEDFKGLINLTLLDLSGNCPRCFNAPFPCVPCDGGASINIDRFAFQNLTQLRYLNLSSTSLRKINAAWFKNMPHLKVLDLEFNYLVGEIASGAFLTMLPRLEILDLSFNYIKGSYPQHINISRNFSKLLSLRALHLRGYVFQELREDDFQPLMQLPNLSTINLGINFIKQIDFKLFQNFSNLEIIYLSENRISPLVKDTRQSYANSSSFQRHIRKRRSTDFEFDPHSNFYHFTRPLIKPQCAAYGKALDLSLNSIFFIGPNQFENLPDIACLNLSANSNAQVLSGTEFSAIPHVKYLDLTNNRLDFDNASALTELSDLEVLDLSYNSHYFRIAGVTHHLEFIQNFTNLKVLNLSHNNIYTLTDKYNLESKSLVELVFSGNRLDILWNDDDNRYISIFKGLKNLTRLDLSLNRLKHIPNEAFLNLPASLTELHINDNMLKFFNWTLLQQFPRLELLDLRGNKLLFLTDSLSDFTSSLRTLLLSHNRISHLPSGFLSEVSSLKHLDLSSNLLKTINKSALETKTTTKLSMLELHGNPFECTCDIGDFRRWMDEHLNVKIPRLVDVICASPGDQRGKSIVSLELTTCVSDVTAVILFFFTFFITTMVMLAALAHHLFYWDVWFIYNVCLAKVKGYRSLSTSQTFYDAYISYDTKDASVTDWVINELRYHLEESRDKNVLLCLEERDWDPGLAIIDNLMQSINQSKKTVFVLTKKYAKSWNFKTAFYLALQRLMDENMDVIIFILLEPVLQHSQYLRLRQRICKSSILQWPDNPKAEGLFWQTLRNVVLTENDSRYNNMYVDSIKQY
The experiment in a line: Agonist activity at human TLR8 expressed in HEK cells after 8 to 12 hrs by NFkappaB/SEAP reporter gene assay. The format is cell-based. On the technique in general: Reporter assays use an easily measured gene product as a stand-in for the process of interest.

Assay [2] deals with T2, Toll-like receptor 7 (Homo sapiens, UniProt Q9NYK1).
T2 sequence (Q9NYK1 whole entry): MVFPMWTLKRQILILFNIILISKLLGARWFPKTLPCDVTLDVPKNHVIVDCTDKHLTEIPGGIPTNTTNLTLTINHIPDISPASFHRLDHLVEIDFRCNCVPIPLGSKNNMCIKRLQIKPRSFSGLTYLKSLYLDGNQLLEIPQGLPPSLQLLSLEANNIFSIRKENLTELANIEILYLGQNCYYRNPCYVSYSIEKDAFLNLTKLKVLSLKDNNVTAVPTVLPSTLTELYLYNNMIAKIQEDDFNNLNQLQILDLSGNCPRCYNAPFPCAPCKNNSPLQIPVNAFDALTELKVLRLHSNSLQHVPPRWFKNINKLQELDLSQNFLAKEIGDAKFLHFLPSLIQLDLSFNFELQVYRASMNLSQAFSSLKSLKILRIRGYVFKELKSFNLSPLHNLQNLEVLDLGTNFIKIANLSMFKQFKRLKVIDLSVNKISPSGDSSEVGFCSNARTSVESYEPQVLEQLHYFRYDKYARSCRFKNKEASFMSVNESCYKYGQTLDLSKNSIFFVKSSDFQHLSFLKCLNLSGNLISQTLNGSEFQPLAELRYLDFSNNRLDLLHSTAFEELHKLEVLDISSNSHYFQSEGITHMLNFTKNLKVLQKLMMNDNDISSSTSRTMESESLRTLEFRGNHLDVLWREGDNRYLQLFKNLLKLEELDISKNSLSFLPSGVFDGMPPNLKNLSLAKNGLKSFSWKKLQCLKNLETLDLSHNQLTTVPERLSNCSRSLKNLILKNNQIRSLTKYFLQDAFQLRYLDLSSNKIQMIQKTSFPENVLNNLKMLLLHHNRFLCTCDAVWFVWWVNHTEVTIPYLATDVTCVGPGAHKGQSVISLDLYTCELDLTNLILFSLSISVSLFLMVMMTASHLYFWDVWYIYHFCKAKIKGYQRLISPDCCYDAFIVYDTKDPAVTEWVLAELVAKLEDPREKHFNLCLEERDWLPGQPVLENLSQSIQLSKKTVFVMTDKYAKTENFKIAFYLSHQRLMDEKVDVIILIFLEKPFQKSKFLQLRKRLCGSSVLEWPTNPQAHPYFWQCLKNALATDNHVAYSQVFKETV
Kind of assay: Agonist activity at human TLR7 expressed in HEK cells after 8 to 12 hrs by NFkappaB/SEAP reporter gene assay. In kind it is cell-based.

Assay [3] addresses T3, Toll-like receptor 8 (Homo sapiens) (UniProt Q9NR97).
T3 sequence (whole entry): T1 sequence (Q9NR97 whole entry)
The experiment in a line: Agonist activity at human TLR8 expressed in HEK cells at 180 uM after 8 to 12 hrs by NFkappaB/SEAP reporter gene assay. The format is cell-based.

Assay [4] concerns the target T4, Toll-like receptor 7 (Homo sapiens) (UniProt Q9NYK1).
T4 sequence (whole entry): T2 sequence (Q9NYK1 whole entry)
Kind of assay: Agonist activity at human TLR7 expressed in HEK cells at 180 uM after 8 to 12 hrs by NFkappaB/SEAP reporter gene assay. The format is cell-based.

In assay [5] the test system is PBMC. Kind of assay: Immunostimulatory activity in human PBMC assessed as increase in IL-1beta levels at 1 uM after 24 hrs by ELISA. The format is functional, cell-based.
Assay [6] concerns PBMC. The experiment in a line: Immunostimulatory activity in human PBMC assessed as increase in TNFalpha levels at 1 uM after 24 hrs by ELISA. The format is functional, cell-based. For orientation: In an ELISA, binding on a coated surface is turned into a signal by an enzyme label.
Assay [7] concerns PBMC. Kind of assay: Immunostimulatory activity in human PBMC assessed as increase in IFNgamma levels at 1 uM after 24 hrs by ELISA. In kind it is functional, cell-based.
The subject of assay [8] is PBMC. Kind of assay: Immunostimulatory activity in human PBMC assessed as increase in IL-12p70 levels at 0.39 to 50 uM after 24 hrs by ELISA. The format is functional, cell-based.
Assay [9] relates to PBMC. Kind of assay: Immunostimulatory activity in human PBMC assessed as increase in TNFalpha levels at 0.39 to 50 uM after 24 hrs by ELISA. The format is functional, cell-based.
The subject of assay [10] is PBMC. The experiment in a line: Immunostimulatory activity in human PBMC assessed as increase in IL-1beta levels at 0.39 to 50 uM after 24 hrs by ELISA. In kind it is functional, cell-based.
The test system of assay [11] is PBMC. The experiment in a line: Immunostimulatory activity in human PBMC assessed as increase in IFNgamma levels at 0.39 to 50 uM after 24 hrs by ELISA. In kind it is functional, cell-based.
Assay [12] has as its system PBMC. The experiment in a line: Immunostimulatory activity in human PBMC assessed as increase in TNFalpha levels at 12.5 uM after 24 hrs by ELISA. The format is functional, cell-based.
The test system of assay [13] is PBMC. The experiment in a line: Immunostimulatory activity in human PBMC assessed as increase in IL-12p70 levels at 12.5 uM after 24 hrs by ELISA. In kind it is functional, cell-based.
Assay [14] relates to PBMC. Kind of assay: Immunostimulatory activity in human PBMC assessed as increase in IFNgamma levels at 12.5 uM after 24 hrs by ELISA. The format is functional, cell-based.
Assay [15] concerns PBMC. The experiment in a line: Immunostimulatory activity in human PBMC assessed as increase in IL-1beta levels at 12.5 uM after 24 hrs by ELISA. The format is functional, cell-based.

Calls of active or inactive are those of the source. No cut-off for these calls is given here.

The EC50 is the concentration needed to bring the measured effect to its halfway point. With `CCCCc1nc2c(N)nc3cc(C(=O)OC)ccc3c2n1CC(C)(C)O`, the EC50 stood at 20.9 µM in assay [1] and 1.69 µM in [2]. `CCCCc1nc2c(N)nc3cc(C(=O)OC)ccc3c2n1Cc1ccc(C(=O)O)cc1`: the result in assay [3] was inactive. As to `CCCCc1nc2c(N)nc3cc(C(=O)OC)ccc3c2n1CCCCC(=O)O`, the result in [3] and in assay [4] was inactive. Turning to `CCCCc1nc2c(N)nc3cc(C(=O)OC)ccc3c2n1CCC(=O)OC`, the outcome in [3] was inactive. With `CCCCc1nc2c(N)nc3cc(C(=O)OC)ccc3c2n1CCCCCC(=O)OC`, in assay [3], the result was inactive. For the molecule `CCCCc1nc2c(N)nc3cc(C(=O)OC)ccc3c2n1CC(C)OC(C)=O` (configuration not stated), the outcome in assay [3] was inactive. For the same molecule, a half-maximal response in assay [2] (EC50) required 3.06 µM. For `CCCCc1nc2c(N)nc3cc(C(=O)OC)ccc3c2n1CCSC`, the result in assay [5], in assay [6] and in assay [7] was Active. For the same molecule, the result in assay [3] was inactive. Consider `CC(C)Cn1cnc2c(N)nc3ccccc3c21` [IMIQUIMOD], for which the outcome in assay [8], in [9], in assay [10], in [3] and in [11] was inactive. Moreover, the EC50 in assay [2] turned out to be 11.4 µM. In the case of `CCCCc1nc2c(N)nc3cc(C(=O)OC)ccc3c2n1CCCCC(=O)OC`, in assay [3], the outcome was inactive. Molecule `CCCCc1nc2c(N)nc3cc(C(=O)OC)ccc3c2n1CCCN` displayed an EC50 in [1] of 26.7 µM. The result in assay [4] was inactive.

As for `CCCCCCCC(=O)OC(C)Cn1c(CCCC)nc2c(N)nc3cc(C(=O)OC)ccc3c21` (configuration not stated), the outcome in [3] and in assay [4] was inactive.

Turning to `CCCCc1nc2c(N)nc3cc(C(=O)OC)ccc3c2n1CCc1ccc(C(=O)O)cc1`, the result in assay [3] and in assay [4] was inactive.

`CCCCc1nc2c(N)nc3cc(C(=O)OC)ccc3c2n1Cc1ccc(CN)cc1`: the outcome in [12] was Active. Turning to `CCCCc1nc2c(N)nc3cc(C(=O)OC)ccc3c2n1CCN`, the result in assay [13], in assay [14] and in assay [15] was Active. Further, the result in assay [4] was inactive.

For `CCCCc1nc2c(N)nc3cc(C(=O)OC)ccc3c2n1CCO`, the EC50 came to 37 µM in [1] and 14.4 µM in assay [2]. In the case of `CCCCc1nc2c(N)nc3cc(C(=O)OC)ccc3c2n1CCCCO`, in assay [3], the result was inactive. This molecule registered an EC50 in assay [2] of 3.21 µM. For `CCCCc1nc2c(N)nc3cc(C(=O)OC)ccc3c2n1CC(=O)OC`, in assay [3], the result was inactive.

Turning to `CCCCc1nc2c(N)nc3cc(C(=O)OC)ccc3c2n1CCCC(=O)OC`, the outcome in [3] was inactive. Turning to `CCCCc1nc2c(N)nc3cc(C(=O)OC)ccc3c2n1CCSCC`, the outcome in assay [3] was inactive. On to `CCCCc1nc2c(N)nc3cc(C(=O)OC)ccc3c2n1CCCCN`, for which the outcome in [4] was inactive. For `CCCCc1nc2c(N)nc3cc(C(=O)OC)ccc3c2n1CCCO`, the outcome in [3] was inactive. The same molecule came in with an EC50 in assay [2] of 1.72 µM. On to `CCCCc1nc2c(N)nc3cc(C(=O)OC)ccc3c2n1CCCSC`, for which the result in assay [3] was inactive.
